According to patent publication US20090099192A1, “Substituted 1H-pyrrole-2,5-diones” (Bayer CropScience AG, priority 2004, published 2009):

How the values were obtained:
[1] = tested on: green peach aphid (Myzus persicae); test: Myzus test (spray treatment, Brassica pekinensis); format: in vivo; conditions: for Kill rate in % after 5 d: 500 g/ha, spray, Brassica pekinensis disks
Procedure: (§1) [table] To produce a suitable preparation of active compound, 1 part by weight of active compound is mixed with the stated amounts of solvents and emulsifier, and the concentrate is diluted with emulsifier-containing water to the desired concentration. Disks of Chinese cabbage (Brassica pekinensis) which are infested by all stages of the green peach aphid (Myzus persicae) are sprayed with an active compound preparation of the desired concentration. After the desired period of time, the effect in % is determined. 100% means that all aphids have been killed; 0% means that none of the aphids have been killed.

[2] = tested on: caterpillars of the diamond back moth (Plutella xylostella); test: Plutella test; format: in vivo
Procedure: [table] To produce a suitable preparation of active compound, 1 part by weight of active compound is mixed with the stated amounts of solvent and emulsifier, and the concentrate is diluted with emulsifier-containing water to the desired concentration. Cabbage leaves (Brassica oleracea) are treated by being dipped into the active compound preparation of the desired concentration and populated with caterpillars of the diamond back moth (Plutella xylostella) while the leaves are still moist. After the desired period of time, the kill in % is determined. 100% means that all caterpillars have been killed; 0% means that none of the caterpillars have been killed.

[3] = tested on: larvae of the mustard beetle (Phaedon cochleariae); test: Phaedon test (spray treatment); format: in vivo; conditions: for Kill rate in % after 7 d: 500 g/ha, spray, Brassica pekinensis disks
Procedure: (§2) [table] To produce a suitable preparation of active compound, 1 part by weight of active compound is mixed with the stated amounts of solvents and emulsifier, and the concentrate is diluted with emulsifier-containing water to the desired concentration. Disks of Chinese cabbage (Brassica pekinensis) are sprayed with an active compound preparation of the desired concentration and, after drying, populated with larvae of the mustard beetle (Phaedon cochleariae). After the desired period of time, the effect in % is determined. 100% means that all beetle larvae have been killed; 0% means that none of the beetle larvae have been killed.

[4] = tested on: caterpillars of the army worm (Spodoptera frugiperda); test: Spodoptera frugiperda test (corn leaf disks sprayed); format: in vivo; conditions: for Kill rate in % after 7 d: 500 g/ha, spray, Zea mays leaf disks
Procedure: as §2, with “corn leaves (Zea mays)” for “Chinese cabbage (Brassica pekinensis)”, “caterpillars” for “larvae”, “army worm (Spodoptera frugiperda).” for “mustard beetle (Phaedon cochleariae).”, “caterpillars” for “beetle larvae”

[5] = tested on: green peach aphid (Myzus persicae); test: Myzus test - oral; format: in vivo; conditions: for Kill rate in % after 6 d: 100 ppm, oral (sucking)
Procedure: as §1, with “solvent,” for “solvents and emulsifier,”, “with” for “with emulsifier-containing”, “Vessels” for “Disks of Chinese cabbage (Brassica pekinensis) which”, “populated with” for “infested by”, “persicae), which” for “persicae)”, “treated by sucking on the” for “sprayed with an”

[6] = logP determination by HPLC on reversed-phase column (C 18), EEC Directive 79/831 Annex V.A8; format: physicochemical; conditions: reversed-phase C 18, 43° C., acid range (0.1% aqueous phosphoric acid, acetonitrile), marked a)
In short: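 Reversed-phase C18 HPLC at 43° C, per EEC Directive 79/831 Annex V.A8, acid range: 0.1% aqueous phosphoric acid with linear 10–90% acetonitrile gradient. logP derived from retention time by linear interpolation between calibrating unbranched alkan-2-ones (C3–C16) of known logP.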

[7] = tested on: caterpillars of the army worm (Spodoptera frugiperda); test: Spodoptera frugiperda test (cabbage leaves dipped); format: in vivo; conditions: for Kill rate in % after 7 d: 500 ppm, leaf dip, Brassica oleracea
Procedure: (§3) [table] To produce a suitable preparation of active compound, 1 part by weight of active compound is mixed with the stated amount of solvent and the stated amount of emulsifier, and the concentrate is diluted with emulsifier-containing water to the desired concentration. Cabbage leaves (Brassica oleracea) are treated by being dipped into the active compound preparation of the desired concentration and populated with caterpillars of the army worm (Spodoptera frugiperda) while the leaves are still moist. After the desired period of time, the kill in % is determined. 100% means that all caterpillars have been killed; 0% means that none of the caterpillars have been killed.

[8] = tested on: common spidermite (Tetranychus urticae); test: Tetranychus test; format: in vivo; conditions: for Kill rate in % after 5 d: 500 ppm, spray, Phaseolus vulgaris disks
Procedure: To produce a suitable preparation of active compound, 1 part by weight of active compound is mixed with the stated amounts of solvent and emulsifier, and the concentrate is diluted with emulsifier-containing water to the desired concentration.
Disks of beans (Phaseolus vulgaris), which are infested by all stages of the common spidermite (Tetranychus urticae) are sprayed with an active compound preparation of the desired concentration.
After the desired period of time, the effect in % is determined. 100% means that all spidermites have been killed; 0% means that none of the spidermites have been killed.

Meloidogyne incognita = test: Meloidogyne test (gall formation on lettuce roots); format: in vivo; conditions: for Kill rate in % after 14 d (nematicidal effect by gall formation): 20 ppm, lettuce in sand
Procedure: [table] To produce a suitable preparation of active compound, 1 part by weight of active compound is mixed with the stated amounts of solvent and emulsifier, and the concentrate is diluted with water to the desired concentration. Vessels are filled with sand, active compound solution, Meloidogyne incognita egg/larvae suspension and lettuce seeds. The lettuce seeds germinate and the plants develop. On the roots, galls are formed. After the desired period of time, the nematicidal effect is determined in % by means of gall formation. 100% means that no galls were found; 0% means that the number of galls on the treated plants corresponds to that of the untreated control.

[9] = tested on: larvae of the mustard beetle (Phaedon cochleariae); test: Phaedon larvae test (cabbage leaves dipped); format: in vivo
Procedure: as §3, with “with” for “with emulsifier-containing”, “with larvae” for “with caterpillars”, “the mustard beetle (Phaedon cochleariae)” for “the army worm (Spodoptera frugiperda)”, “all beetle larvae” for “all caterpillars”, “the beetle larvae” for “the caterpillars”

For `CCN1C(=O)C(OC(C)=O)=C(c2c(C)cc(C)cc2C)C1=O` [Example 3], the “activity in the Myzus test (spray, Brassica pekinensis)” value [1] was “good activity”, the “Kill rate in % after 5 d” value [1] was 90% and the “activity in the Plutella test” value [2] was “good activity”. The “Kill rate in % after 7 d” value ([2]; 1000 ppm, leaf dip) was 90%.

For `O=C1C(O)=C(c2ccccc2C(F)(F)F)C(=O)N1C1CCCC(C(F)(F)F)C1` (centres unmarked) [Example 217], the “activity in the Phaedon test (spray treatment)” value (shortened to “activity in the Phaedon test”) [3] was “good activity”, the “Kill rate in % after 7 d” value [3] was 100% and the “activity in the Spodoptera frugiperda test (spray)” value (“activity … (spray)” for short) [4] was “good activity”. The “Kill rate in % after 7 d” value [4] was 100%, the “activity in the Myzus test (spray, Brassica pekinensis)” value [1] was “good activity” and the “Kill rate in % after 5 d” value [1] was 100%. The “activity in the Myzus test - oral” value [5] was “good activity” and the “Kill rate in % after 6 d” value [5] was 100%.

In the case of `O=C1C(O)=C(c2ccc(C(F)(F)F)cc2)C(=O)N1c1ccc(C(F)(F)F)cc1` [Example 13], the logP [6] is reported as “logP = 3.51^a)”, the “activity in the Spodoptera frugiperda test (leaf dip)” value (“activity … (leaf dip)” below) [7] is reported as “good activity” and the “Kill rate in % after 7 d” value [7] is reported as 100%.

In the case of `CC(C)(C)C(=O)OC1=C(c2ccccc2Cl)C(=O)N(C2CCC(C(F)(F)F)CC2)C1=O` (centres unmarked) [Example 207], the logP [6] is reported as “logP = 5.31^a)”, the “activity in the Phaedon test” value [3] is reported as “good activity” and the “Kill rate in % after 7 d” value [3] is reported as 100%. For the same compound, the “activity in the Myzus test (spray, Brassica pekinensis)” value [1] was “good activity”, the “Kill rate in % after 5 d” value [1] was 100% and the “Kill rate in % after 5 d” value [8] was 90%.

With `O=C1C(O)=C(c2ccccc2I)C(=O)N1C1CCCC(C(F)(F)F)C1` (centres unmarked) [Example 219] the “activity in the Phaedon test” value [3] was “good activity”, the “Kill rate in % after 7 d” value [3] was 100% and the “activity … (spray)” value [4] was “good activity”. For the same compound, the “Kill rate in % after 7 d” value [4] was 100%, the “activity in the Myzus test (spray, Brassica pekinensis)” value [1] was “good activity” and the “Kill rate in % after 5 d” value [1] was 90%. For the same compound, the “activity in the Myzus test - oral” value [5] was “good activity” and the “Kill rate in % after 6 d” value [5] was 100%.

In the case of `O=C1C(O)=C(c2ccccc2Cl)C(=O)N1C1CCCCC1C(F)(F)F` (centres unmarked) [Example 205], the logP [6] is reported as “logP = 3.27^a)”, the “activity in the Phaedon test” value [3] is reported as “good activity” and the “Kill rate in % after 7 d” value [3] is reported as 100%. For the same compound, the “Kill rate in % after 6 d” value [5] was 100%.

In the case of `O=C1C(O)=C(c2ccc(OC(F)(F)F)cc2)C(=O)N1c1ccc(C(F)(F)F)cc1` [Example 12], the logP [6] is reported as “logP = 3.97^a)”, the “activity … (leaf dip)” value [7] is reported as “good activity” and the “Kill rate in % after 7 d” value [7] is reported as 100%.

For `CC(C)C1CCCC(N2C(=O)C(O)=C(c3ccccc3Cl)C2=O)C1` (centres unmarked) [Example 195], the “activity in the Phaedon test” value [3] was “good activity”, the “Kill rate in % after 7 d” value [3] was 100% and the “activity … (spray)” value [4] was “good activity”. For the same compound, the “Kill rate in % after 7 d” value [4] was 100%, the “activity in the Myzus test - oral” value [5] was “good activity” and the “Kill rate in % after 6 d” value [5] was 100%.

For `CC(C)(C)C(=O)OC1=C(c2ccccc2C(F)(F)F)C(=O)N(C2CCCC(C(F)(F)F)C2)C1=O` (centres unmarked) [Example 220], the “activity in the Phaedon test” value [3] was “good activity”, the “Kill rate in % after 7 d” value [3] was 100% and the “activity in the Meloidogyne test” value (Meloidogyne incognita) was “good activity”. For the same compound, the “Kill rate in % after 14 d (nematicidal effect by gall formation)” value (from here on “Kill rate in % after 14 d”) (Meloidogyne incognita) was 80%, the “activity in the Myzus test (spray, Brassica pekinensis)” value [1] was “good activity” and the “Kill rate in % after 5 d” value [1] was 100%.

In the case of `CC1CCCC(N2C(=O)C(O)=C(c3ccccc3Cl)C2=O)C1` (centres unmarked) [Example 196], the logP [6] is reported as “logP = 3.57^a)”, the “activity in the Phaedon test” value [3] is reported as “good activity” and the “Kill rate in % after 7 d” value [3] is reported as 100%. The “activity … (spray)” value [4] was “good activity”, the “Kill rate in % after 7 d” value [4] was 100% and the “activity in the Myzus test - oral” value [5] was “good activity”. The “Kill rate in % after 6 d” value [5] was 100%.

In the case of `O=C1C(O)=C(c2cc(Cl)cc(Cl)c2)C(=O)N1c1ccc(Cl)cc1` [Example 11], the logP [6] is reported as “logP = 3.27^a)”, the “activity … (leaf dip)” value [7] is reported as “good activity” and the “Kill rate in % after 7 d” value [7] is reported as 100%.

With `O=C1C(O)=C(c2ccc(F)cc2C(F)(F)F)C(=O)N1C1CCCC(C(F)(F)F)C1` (centres unmarked) [Example 192] the logP [6] was “logP = 3.56^a)”, the “activity in the Phaedon test” value [3] was “good activity” and the “Kill rate in % after 7 d” value [3] was 100%. The “activity in the Tetranychus test” value [8] was “good activity”, the “Kill rate in % after 5 d” value [8] was 90% and the “activity in the Myzus test - oral” value [5] was “good activity”.

For `CCOCOC1=C(c2ccccc2Cl)C(=O)N(C2CCCC(C(F)(F)F)C2)C1=O` (centres unmarked) [Example 202], the logP [6] was “logP = 4.53^a)”, the “activity in the Phaedon test” value [3] was “good activity” and the “Kill rate in % after 7 d” value [3] was 100%. For the same compound, the “activity … (spray)” value [4] was “good activity”, the “Kill rate in % after 7 d” value [4] was 100% and the “activity in the Myzus test (spray, Brassica pekinensis)” value [1] was “good activity”. The “Kill rate in % after 5 d” value [1] was 80%, the “activity in the Tetranychus test” value [8] was “good activity” and the “Kill rate in % after 5 d” value [8] was 80%.

For `N#Cc1ccc(C2=C(O)C(=O)N(C3CCCC(C(F)(F)F)C3)C2=O)cc1` (centres unmarked) [Example 215], the logP [6] was “logP = 3.04^a)”, the “activity … (leaf dip)” value [7] was “good activity” and the “Kill rate in % after 7 d” value [7] was 85%. For the same compound, the “activity in the Meloidogyne test” value (Meloidogyne incognita) was “good activity” and the “Kill rate in % after 14 d” value (Meloidogyne incognita) was 80%.

With `O=C1C(O)=C(c2cc(Cl)cc(Cl)c2)C(=O)N1C1CCC(C(F)(F)F)CC1` (centres unmarked) [Example 212] the logP [6] was “logP = 4.48^a)”, the “activity in the Phaedon larvae test” value [9] was “good activity” and the “Kill rate in % after 7 d” value ([9]; 500 ppm, leaf dip, Brassica oleracea) was 100%. For the same compound, the “activity in the Phaedon test” value [3] was “good activity”, the “Kill rate in % after 7 d” value [3] was 100% and the “activity … (leaf dip)” value [7] was “good activity”. The “Kill rate in % after 7 d” value [7] was 100%, the “activity … (spray)” value [4] was “good activity” and the “Kill rate in % after 7 d” value [4] was 100%.

In the case of `O=C1C(O)=C(c2ccc(C(F)(F)F)cc2)C(=O)N1c1ccc(OC(F)(F)F)cc1` [Example 10], the logP [6] is reported as “logP = 3.64^a)”, the “activity … (leaf dip)” value [7] is reported as “good activity” and the “Kill rate in % after 7 d” value [7] is reported as 100%. The “activity in the Meloidogyne test” value (Meloidogyne incognita) was “good activity” and the “Kill rate in % after 14 d” value (Meloidogyne incognita) was 99%.
